The source of these data is ChEMBL document CHEMBL1909046, “DrugMatrix in vitro pharmacology data”.

The term IC50 denotes the midpoint of a concentration-inhibition curve. As usually defined, the Ki is a dissociation constant, usually derived from enzyme kinetics or from competition with a known ligand.

The target in one assay is Estrogen receptor beta (Homo sapiens, UniProt Q92731). To be noted: sf9. Further: in other assays of this panel Not Active means under 50% inhibition at 10 µM.
A short description of assay [1]: DRUGMATRIX: Purinergic P2X radioligand binding (ligand: [3H] alpha, beta-Methylene-ATP). Type of assay: cell membranes, Oryctolagus cuniculus, New Zealand albino, Urinary bladder, Membrane. The conditions noted are these: Not Active = under 50% inhibition at 10 µM.
In assay [2] the target is Mitogen-activated protein kinase 14 (Homo sapiens, UniProt Q16539). Details: species or system Escherichia coli.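 Further: inhibition of p38alpha enzyme activity in a biochemical kinase assay, with myelin basic protein serving as substrate; in other assays of this panel Not Active means under 50% inhibition at 10 µM.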
For assay [3], the target named is Aldo-keto reductase family 1 member B1 (Rattus norvegicus, UniProt P07943). Put plainly: biochemical. Type of assay: tissue-based, Lens of camera-type eye.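 Further: inhibition of aldose reductase enzyme activity, measured with DL-glyceraldehyde as the substrate; in other assays of this panel Not Active means under 50% inhibition at 10 µM.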
In assay [4] the target is T1, 3-hydroxy-3-methylglutaryl-coenzyme A reductase (Homo sapiens, UniProt P04035).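 Further: enzyme inhibition assay of HMG-CoA reductase using radiolabeled [14C]HMG-CoA as substrate; in other assays of this panel Not Active means under 50% inhibition at 10 µM.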
T1 sequence (P04035 whole entry): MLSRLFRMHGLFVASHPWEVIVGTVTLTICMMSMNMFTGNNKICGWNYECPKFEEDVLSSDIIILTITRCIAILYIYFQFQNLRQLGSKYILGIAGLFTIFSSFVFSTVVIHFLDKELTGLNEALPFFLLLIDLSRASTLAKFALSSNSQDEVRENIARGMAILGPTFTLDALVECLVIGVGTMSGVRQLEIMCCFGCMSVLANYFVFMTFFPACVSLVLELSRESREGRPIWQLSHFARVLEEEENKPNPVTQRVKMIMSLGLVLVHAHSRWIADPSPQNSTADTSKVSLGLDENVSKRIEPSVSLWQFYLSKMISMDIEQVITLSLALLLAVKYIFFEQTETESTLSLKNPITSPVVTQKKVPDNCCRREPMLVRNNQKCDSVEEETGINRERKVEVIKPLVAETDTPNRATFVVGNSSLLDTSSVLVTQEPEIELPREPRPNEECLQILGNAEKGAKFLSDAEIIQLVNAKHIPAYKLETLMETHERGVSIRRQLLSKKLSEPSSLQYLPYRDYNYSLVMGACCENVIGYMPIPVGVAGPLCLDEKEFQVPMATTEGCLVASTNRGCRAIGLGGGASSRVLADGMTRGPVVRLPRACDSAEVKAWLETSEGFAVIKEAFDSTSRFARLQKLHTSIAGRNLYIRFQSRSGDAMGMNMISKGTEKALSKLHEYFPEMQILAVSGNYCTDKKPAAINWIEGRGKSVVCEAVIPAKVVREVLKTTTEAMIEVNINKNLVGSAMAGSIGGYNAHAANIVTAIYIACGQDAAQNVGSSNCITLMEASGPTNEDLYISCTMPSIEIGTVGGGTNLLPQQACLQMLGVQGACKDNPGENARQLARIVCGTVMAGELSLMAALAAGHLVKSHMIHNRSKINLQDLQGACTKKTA
Details: species or system Escherichia coli.

Assay [5] in a line: DRUGMATRIX: GABAA, Flunitrazepam, Central radioligand binding (ligand: [3H] Flunitrazepam). Type of assay: cell membranes, Rattus norvegicus, Wistar, Brain, Membrane. To be noted: Not Active = under 50% inhibition at 10 µM.
A short description of assay [6]: DRUGMATRIX: Calcium Channel Type L, Phenylalkylamine radioligand binding (ligand: [3H] (-)-Desmethoxyverapamil (D-888)). Type of assay: cell membranes, Rattus norvegicus, Wistar, Brain, Membrane. The conditions noted are these: Not Active = under 50% inhibition at 10 µM.

Sequence of Estrogen receptor beta (Q92731 whole entry): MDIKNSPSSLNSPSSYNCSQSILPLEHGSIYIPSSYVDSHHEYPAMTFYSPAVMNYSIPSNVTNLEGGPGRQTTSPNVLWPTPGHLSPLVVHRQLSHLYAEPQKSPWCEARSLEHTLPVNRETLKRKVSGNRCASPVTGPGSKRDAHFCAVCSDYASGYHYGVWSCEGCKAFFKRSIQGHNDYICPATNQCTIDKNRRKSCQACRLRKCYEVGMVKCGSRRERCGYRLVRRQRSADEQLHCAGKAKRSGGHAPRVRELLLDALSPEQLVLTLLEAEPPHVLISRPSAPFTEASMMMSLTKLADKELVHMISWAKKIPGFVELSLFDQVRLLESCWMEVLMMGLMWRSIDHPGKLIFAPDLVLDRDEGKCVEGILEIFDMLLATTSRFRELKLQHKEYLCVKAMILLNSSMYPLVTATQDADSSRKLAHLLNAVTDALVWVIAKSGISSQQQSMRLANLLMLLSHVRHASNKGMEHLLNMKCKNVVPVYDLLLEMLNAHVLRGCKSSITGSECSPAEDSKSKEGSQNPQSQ
Sequence of Mitogen-activated protein kinase 14 (Q16539 whole entry): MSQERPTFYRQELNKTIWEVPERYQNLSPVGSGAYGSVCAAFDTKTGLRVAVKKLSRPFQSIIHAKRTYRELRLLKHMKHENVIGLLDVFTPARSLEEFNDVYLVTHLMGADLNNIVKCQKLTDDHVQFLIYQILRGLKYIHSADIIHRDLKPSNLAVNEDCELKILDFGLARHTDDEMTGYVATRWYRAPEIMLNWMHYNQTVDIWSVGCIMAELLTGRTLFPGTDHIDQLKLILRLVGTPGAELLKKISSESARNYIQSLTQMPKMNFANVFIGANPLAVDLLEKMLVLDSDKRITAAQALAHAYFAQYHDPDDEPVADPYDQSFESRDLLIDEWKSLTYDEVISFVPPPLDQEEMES

`CCC1=C(C)CN(C(=O)NCCc2ccc(S(=O)(=O)NC(=O)N[C@H]3CC[C@H](C)CC3)cc2)C1=O` [GLIMEPIRIDE]: the IC50 entry (against Estrogen receptor beta; in assay [1]; in assay [2]; in assay [3]; in assay [4]; in assay [5]) was “Not Active” throughout. Also, the IC50 entry in assay [6] is on record as “Not Active”. In addition, the Ki entry in assay [1], in assay [5] and in assay [6] was “Not Active” throughout.
For the compound `Nc1cc(-c2ccncc2)c[nH]c1=O` [INAMRINONE], the IC50 result (at Estrogen receptor beta; in assay [1]; in assay [2]; in assay [3]; in assay [4]; in assay [5]) was “Not Active” in each case. In assay [6], the IC50 result was “Not Active”. In addition, the inhibition constant Ki result in assay [1], in assay [5] and in assay [6] was “Not Active” in each case.
In the case of `CCCCC1=NC2(CCCC2)C(=O)N1Cc1ccc(-c2ccccc2-c2nnn[nH]2)cc1` [IRBESARTAN], the IC50 entry (on Estrogen receptor beta; in assay [1]; in assay [2]; in assay [3]; in assay [4]; in assay [5]) was “Not Active” throughout. The IC50 result in assay [6] was “Not Active”. The Ki entry in assay [1], in assay [5] and in assay [6] was “Not Active” throughout.
Take `CN1CCC(=C2c3ccccc3CC(=O)c3sccc32)CC1` [KETOTIFEN]: the IC50 result (at Estrogen receptor beta; in assay [1]; in assay [2]; in assay [3]; in assay [4]; in assay [5]) was “Not Active” in each case. Besides, the IC50 entry in assay [6] was “Not Active”. Moreover, the Ki entry in assay [1], in assay [5] and in assay [6] was “Not Active” in each case.
Consider `N[C@@H](Cn1ccc(=O)c(O)c1)C(=O)O` [L-MIMOSINE], for which the half-inhibitory concentration (IC50) entry (at Estrogen receptor beta; in assay [1]; in assay [2]; in assay [3]; in assay [4]; in assay [5]) was “Not Active” each time. In addition, in assay [6], the half-inhibitory concentration (IC50) result is on record as “Not Active”. Moreover, the Ki entry in assay [1], in assay [5] and in assay [6] was “Not Active” throughout.
For the compound `CN1CCCC(CN2c3ccccc3Sc3ccccc32)C1` (stereo not given) [MEPAZINE], the IC50 result (against Estrogen receptor beta; in assay [1]; in assay [2]; in assay [3]; in assay [4]; in assay [5]) was “Not Active” in each case. For the same compound, the IC50 in assay [6] (read-out: IC50) was determined as 1.55 µM. In addition, the Ki entry was “Not Active” in assay [1], “Not Active” in assay [5] and 1.5 µM in assay [6] (read-out: Ki).
Turning to `Cc1cccc(C)c1NC(=O)C1CCCCN1C` (stereo not given) [MEPIVACAINE], the half-inhibitory concentration (IC50) entry (on Estrogen receptor beta; in assay [1]; in assay [2]; in assay [3]; in assay [4]; in assay [5]) was “Not Active” each time. Moreover, the IC50 entry in assay [6] was “Not Active”. Moreover, the Ki entry in assay [1], in assay [5] and in assay [6] was “Not Active” in each case.
Turning to `CC(C)(C)NCC(O)COc1cccc2c1CC(O)C(O)C2` (stereo not given) [NADOLOL], the IC50 entry (on Estrogen receptor beta; in assay [1]; in assay [2]; in assay [3]; in assay [4]; in assay [5]) was “Not Active” each time. Also, the IC50 result in assay [6] is recorded as “Not Active”. The Ki entry in assay [1], in assay [5] and in assay [6] was “Not Active” each time.
Turning to `C[C@]12CC[C@H]3[C@@H](CCC4=CC(=O)CC[C@@H]43)[C@@H]1CC[C@@H]2O` [NANDROLONE], the IC50 result (at Estrogen receptor beta; in assay [1]; in assay [2]; in assay [3]; in assay [4]; in assay [5]) was “Not Active” in each case. For the same compound, the IC50 entry in assay [6] is recorded as “Not Active”. Also, the Ki result in assay [1], in assay [5] and in assay [6] was “Not Active” each time.
Take `C[C@@H]1C/C=C/C=C/C=C/C=C/[C@H](O[C@@H]2O[C@H](C)[C@@H](O)[C@H](N)[C@@H]2O)C[C@@H]2O[C@](O)(C[C@@H](O)C[C@H]3O[C@@H]3/C=C/C(=O)O1)C[C@H](O)[C@H]2C(=O)O` [NATAMYCIN]: the IC50 entry (at Estrogen receptor beta; in assay [1]; in assay [2]; in assay [3]; in assay [4]; in assay [5]) was “Not Active” each time. Also, the IC50 entry in assay [6] is “Not Active”. Also, the Ki result in assay [1], in assay [5] and in assay [6] was “Not Active” in each case.
For `NC(=O)c1cccnc1` [NIACINAMIDE], the IC50 entry (on Estrogen receptor beta; in assay [1]; in assay [2]; in assay [3]; in assay [4]; in assay [5]) was “Not Active” each time. The half-maximal inhibitory concentration (IC50) result in assay [6] is “Not Active”. The Ki result in assay [1], in assay [5] and in assay [6] was “Not Active” each time.
Take `CS(=O)(=O)Nc1ccc([N+](=O)[O-])cc1Oc1ccccc1` [NIMESULIDE]: the IC50 result (against Estrogen receptor beta; in assay [1]; in assay [2]; in assay [3]; in assay [4]; in assay [5]) was “Not Active” throughout. Moreover, in assay [6], the IC50 entry is recorded as “Not Active”. Also, the Ki result in assay [1], in assay [5] and in assay [6] was “Not Active” each time.
As to `C[C@@H]1O[C@@H](O[C@H]2C[C@@H](O)[C@]3(CO)[C@H]4[C@H](O)C[C@]5(C)[C@@H](C6=CC(=O)OC6)CC[C@]5(O)[C@@H]4CC[C@]3(O)C2)[C@H](O)[C@H](O)[C@H]1O` [OUABAIN], the IC50 result (at Estrogen receptor beta; in assay [1]; in assay [2]; in assay [3]; in assay [4]; in assay [5]) was “Not Active” throughout. In addition, the IC50 entry in assay [6] is recorded as “Not Active”. The Ki result in assay [1], in assay [5] and in assay [6] was “Not Active” throughout.
In the case of `NC(=O)N1c2ccccc2CC(=O)c2ccccc21` [OXCARBAZEPINE], the IC50 result (against Estrogen receptor beta; in assay [1]; in assay [2]; in assay [3]; in assay [4]; in assay [5]) was “Not Active” in each case. Besides, the half-inhibitory concentration (IC50) result in assay [6] is reported as “Not Active”. Further, the Ki result in assay [1], in assay [5] and in assay [6] was “Not Active” throughout.
With `COc1ccnc(C[S+]([O-])c2nc3ccc(OC(F)F)cc3[nH]2)c1OC` (stereo not given) [PANTOPRAZOLE], the IC50 result (on Estrogen receptor beta; in assay [1]; in assay [2]; in assay [3]; in assay [4]; in assay [5]) was “Not Active” each time. The 50% inhibitory concentration (IC50) entry in assay [6] was “Not Active”. The Ki result in assay [1], in assay [5] and in assay [6] was “Not Active” throughout.
For the compound `CCc1ccc(CCOc2ccc(CC3SC(=O)NC3=O)cc2)nc1` (stereo not given) [PIOGLITAZONE], the IC50 result on Estrogen receptor beta was “Not Active”; in assay [1] it was “Not Active”; in assay [2] it was “Not Active”; in assay [3] (read-out: IC50), 13.2 µM; in assay [4], “Not Active”; in assay [5], “Not Active”. Also, in assay [6], the IC50 result is reported as “Not Active”. Further, the inhibition constant Ki entry in assay [1], in assay [5] and in assay [6] was “Not Active” throughout.
With `CCN(CC)CCNC(=O)c1ccc(N)cc1` [PROCAINAMIDE], the IC50 result (on Estrogen receptor beta; in assay [1]; in assay [2]; in assay [3]; in assay [4]; in assay [5]) was “Not Active” each time. Besides, in assay [6], the IC50 result is “Not Active”. The Ki entry in assay [1], in assay [5] and in assay [6] was “Not Active” in each case.
